Test results: EP0907731B1, “METABOTROPIC GABA(B) RECEPTORS, RECEPTOR-SPECIFIC LIGANDS AND THEIR USES” (Novartis AG, priority 1996, dated 1997)
Entries after “also recorded” stand apart in the source; their conditions may differ. Where two headings read alike, the source gives them in different places.

Legend:
GABAB receptors = conditions: inhibition of [125I]CGP 64213 binding, native receptors; read-out: Rat cerebral cortex IC50
Protocol: The animals are decapitated, the brains removed, the cerebral cortices dissected and homogenised in 10 volumes of ice-cold 0.32 M sucrose, containing MgCl2 (1 mM) and K2HPO4 (1 mM), with a glass/Teflon homogeniser. The membranes are centrifuged at 1000 x g for 15 min, the pellet resuspended and the centrifugation repeated. The supernatants are pooled and centrifuged at 20000 x g for 15 min. The pellet is osmotically shocked by resuspension in 10 volumes H2O and kept on ice for 30 min. […] The membranes are thawed at room temperature, washed three times with Krebs-Henseleit buffer by centrifugation at 20000 x g for 15 min, left overnight at 4°C and washed again three times. The final pellet is resuspended with a glass/Teflon homogenise in 20 ml of the same buffer. 2 ml aliquots are frozen and stored in liquid nitrogen. Just before use membranes are thawed quickly in a water bath at 37°C and again washed by centrifugation at 20000 x g for 15 min with the same buffer three times.
The incubation is terminated by filtration through GF/B Whatman glass fibre filters.

[1] = biological target: recombinant GABABR1a receptors; conditions: read-out: COS 1 cells IC50, inhibition of [125I]CGP 64213 binding
Protocol: In order to isolate membranes containing the cloned GABAB receptor, culture dishes containing GABAB receptor-expressing COS cells are washed twice with Krebs-Henseleit-Tris buffer. Afterwards the cells are scraped off the dishes, homogenised in a glass-glass homogeniser and centrifuged for 30 min at 4°C at 40'000 g. The homogenisation and centrifugation step is repeated once. The pellet is resuspended in buffer and stored in liquid nitrogen until further analysis.

native GABAB receptors = test: Photoaffinity labelling of membranes with [125I]CGP 71872 in the presence of competitor substances; type: binding, rat
Protocol: The incubation is terminated by centrifugation at 20 000 x g for 10 min at 4°C. This step removed free unbound photoaffinity label. […] The suspension is centrifuged at 20 000 x g for 10 min and resuspended at a concentration of 8mg/ml protein in buffer. […] The labelled membranes could be stored at -80°C.
Furthermore, native GABAB receptors are photoaffinity-labelled in the presence of various competitor substances indicated in Figure 4b.

GABABR1a = biological target: T1, GABABR1a (Rattus norvegicus, UniProt Q9Z0U4); test: Forskolin-stimulated cAMP accumulation in HEK293 cells stably expressing GABABR1a; type: cell-based; conditions: 10 µM antagonist, 300 µM L-baclofen
T1 construct: either the full-length cDNA clones disclosed herein or fragments thereof can be used as probes; expressed in transfected cells
From the text: GABAB receptors are described to inhibit adenylate cyclase activity, stimulate phospholipase A2, activate K^+-channels, inactivate voltage-dependent Ca^2+-channels and to modulate inositol phospholipid hydrolysis. As GABABR1a and -b have identical sequence in all domains predicted to be intracellular they are expected to be able to couple to the same effector systems. […] We chose concentrations of forskolin and L-baclofen that should produce a maximal effect.

[2] = system: non-transfected HEK293 cells; test: Forskolin-stimulated cAMP formation in non-transfected HEK293 cells (control); type: cell-based; conditions: untransfected HEK293 cells
Protocol: • Figure 1 a depicts the expression of the recombinant GABABR1a receptor in COS1 cells. […]. Autoradiography of a 6% SDS gel with 25µg protein loaded per lane is shown. […]. The apparent molecular weight of native and recombinant GABAB receptors are estimated from gel mobilities relative to those of SDS-PAGE standards (BioRad). […]. Cell membranes of the tissues indicated are photoaffinity-labelled with [[…] and subjected to SDS-PAGE and autoradiography. a, b, Selectivity of the photoaffinity ligand [[…]. a, Differential distribution of GABAB receptor variants of 130K and 100K in tissues of the nervous system. […]. Incubation of membrane extracts with the photoaffinity ligand is carried out in the presence of competitor substances at the concentrations indicated, c, GABAB receptors are N-glycosylated. Photoaffinity-labelled rat cortex cell membranes are incubated with 0.4 units N-glycosidase F or 0.6 milliunits O-glycosidase (Boehringer Mannheim). d, Photolabelling of GABAB receptors from different species. […]
GABAB receptors are described to inhibit adenylate cyclase activity, stimulate phospholipase A2, activate K^+-channels, inactivate voltage-dependent Ca^2+-channels and to modulate inositol phospholipid hydrolysis. […] The ability of GABABR1a stably expressed in HEK293 cells to reduce forskolin-stimulated CAMP accumulation is analysed (Fig. 5). […]

[3] = system: rat cortical slice preparations; conditions: cited from earlier work

T1 sequence (Q9Z0U4 20-960): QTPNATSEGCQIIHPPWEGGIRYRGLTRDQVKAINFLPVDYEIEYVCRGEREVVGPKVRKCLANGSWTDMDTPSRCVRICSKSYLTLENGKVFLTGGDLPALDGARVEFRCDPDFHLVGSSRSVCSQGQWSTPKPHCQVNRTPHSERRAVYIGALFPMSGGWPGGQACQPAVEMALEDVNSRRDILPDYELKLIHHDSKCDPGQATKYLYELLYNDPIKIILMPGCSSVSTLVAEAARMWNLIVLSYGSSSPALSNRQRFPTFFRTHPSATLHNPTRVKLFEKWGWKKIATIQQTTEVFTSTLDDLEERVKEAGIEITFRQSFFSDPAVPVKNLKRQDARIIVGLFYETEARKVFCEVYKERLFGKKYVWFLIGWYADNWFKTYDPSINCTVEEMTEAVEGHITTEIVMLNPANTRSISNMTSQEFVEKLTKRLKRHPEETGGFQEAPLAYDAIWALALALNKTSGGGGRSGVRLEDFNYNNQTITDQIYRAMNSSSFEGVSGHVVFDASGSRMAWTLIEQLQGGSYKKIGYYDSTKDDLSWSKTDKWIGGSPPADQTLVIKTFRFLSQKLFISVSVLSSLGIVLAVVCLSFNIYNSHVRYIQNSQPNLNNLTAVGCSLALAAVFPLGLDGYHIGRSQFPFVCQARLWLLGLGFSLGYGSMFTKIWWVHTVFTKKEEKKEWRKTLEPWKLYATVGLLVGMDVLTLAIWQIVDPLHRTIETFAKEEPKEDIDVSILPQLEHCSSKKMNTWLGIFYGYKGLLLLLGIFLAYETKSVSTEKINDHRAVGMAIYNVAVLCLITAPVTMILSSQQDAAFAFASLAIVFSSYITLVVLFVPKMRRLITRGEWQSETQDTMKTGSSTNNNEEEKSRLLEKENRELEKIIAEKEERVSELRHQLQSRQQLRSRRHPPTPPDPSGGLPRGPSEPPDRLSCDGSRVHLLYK

SMILES: NCCCP(=O)(O)C(F)F [CGP 47656]
- IC50 (GABAB receptors): 0.28 µM
- IC50 [1]: 12.3 µM

SMILES: C[C@H](NC[C@H](O)CP(=O)(O)CC1CCCCC1)c1ccc(Cl)c(Cl)c1 [CGP 54626A]
- [125I]CGP 71872 labelling in the presence of excess unlabelled antagonist (native GABAB receptors): no radioactivity is bound to the membranes
- [125I]CGP 71872 labelling in the presence of excess unlabelled antagonist (native GABAB receptors; listed as CGP54626A): inhibited
- effect on the L-baclofen inhibition of forskolin-stimulated cAMP accumulation (GABABR1a): antagonised

SMILES: NC[C@H](CC(=O)O)c1ccc(Cl)cc1 [L-baclofen]
- inhibition of forskolin-stimulated cAMP formation [2]: No L-baclofen response; also recorded: does not inhibit
- reduction of forskolin-stimulated cAMP accumulation [3]: about 40%
